Earlier results, collected in PMC11604869, “Stereoselective block of the hERG potassium channel by the Class Ia antiarrhythmic drug disopyramide” (Cellular and Molecular Life Sciences: CMLS, 2024).

Key:
[1] = parameters: method as in PMID 6740739
rabbit ventricular ITO = tested on: rabbit ventricular ITO; parameters: method as in PMID 9550298; settings: 30 μM
rat ventricular ITO = tested on: rat ventricular ITO; parameters: method as in PMID 11327018; settings: 100 μM
[2] = plasma
[3] = tested on: rate corrected QT interval; parameters: method as in PMID 2439842; settings: for effect on rate corrected QT interval: acute infusion, healthy human volunteers
hERG = tested on: hERG; parameters: method as in PMID 12466236

Q: For CC(C)N(CCC(C(N)=O)(c1ccccc1)c1ccccn1)C(C)C (racemic) [racemic disopyramide, 4-(diisopropylamino)−2-phenyl-2-(pyridin-2-yl) butanamide], which “therapeutic total plasma levels” value [1] is on record?
A: Its value is 6 to 8 µM.

Q: And the “reduction of rabbit ventricular ITO amplitude” value (rabbit ventricular ITO)?
A: Its value is ~ 33%.

Q: And the “effect on rat ventricular ITO” value (rat ventricular ITO)?
A: The value was “no effect”.

Q: Which unbound fractions [2] does the source give for CC(C)N(CC[C@@](C(N)=O)(c1ccccc1)c1ccccn1)C(C)C [R(−) disopyramide] here?
A: Its unbound fractions is 0.338.

Q: And the “effect on rate corrected QT interval” value [3]?
A: The value was “not”.

Q: What does the source list for CC(C)N(CC[C@](C(N)=O)(c1ccccc1)c1ccccn1)C(C)C [S(+) disopyramide]?
A: unbound fractions [2]: 0.208; effect on rate corrected QT interval [3]: prolongation of the rate corrected QT interval; negative inotropic effect in humans ([3]; compared with R(−) disopyramide): smaller negative inotropic effect

Q: With CCCCN1CCCC[C@H]1C(=O)Nc1c(C)cccc1C [levobupivacaine] as the compound, how does the “potency of IhERG inhibition relative to dextrobupivacaine” value (hERG) read?
A: The value was “twofold”.
